Strand notation (5' to 3'): a small letter for the sugar, then the base; units joined by * are phosphorothioate-linked, units joined directly phosphodiester-linked; [ ] holds rarer units or linkages, { } end groups; capitals alone tell only the bases. k = constrained ethyl (cEt); [5mC] = 5-methylcytosine; d = 2'-deoxy (DNA)
What follows are substances tested on Yap1 mRNA (assay: Antisense inhibition of human Yap1 in A-431 cells by cEt gapmers, single dose (Example 3, RTS36584)). Conditions: Table 26; Yap1 mRNA by 3-10-3 cEt gapmers targeting SEQ ID NO.: 1, and 2; percent of untreated control.
Assay type: cell-based
Procedure, shortened: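 Read-out is Yap1 mRNA as percent of untreated control, by quantitative RT-PCR normalized to total RNA (RiboGreen). Cells (A-431) received 2,000 nM of 3-10-3 cEt phosphorothioate gapmer via free uptake for roughly 48 hours.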
“1075660 (antisense k[5mC]*kA*kA*dA*dG*dT*dA*dA*dA*dA*dA*dA*d[5mC]*kG*kG*kT) [compound 1075660]” was tested, and the “YAP1 (% UTC)” value was 72 % UTC.
In the case of “1075692 (kT*kA*kA*dG*dA*dA*d[5mC]*dA*d[5mC]*d[5mC]*dA*dT*dA*kG*k[5mC]*kA; antisense) [compound 1075692]”, the “YAP1 (% UTC)” value is reported as 11 % UTC.
“1075724 (k[5mC]*kT*kA*dT*d[5mC]*dT*dG*dT*d[5mC]*dA*dG*dT*dT*kA*kT*k[5mC]; antisense) [compound 1075724]” was tested, and the “YAP1 (% UTC)” value was 44 % UTC.
With “1075756 (kA*kT*kT*dT*dA*d[5mC]*d[5mC]*d[5mC]*dT*dG*d[5mC]*d[5mC]*dA*k[5mC]*kT*kT; antisense) [compound 1075756]” the “YAP1 (% UTC)” value was 49 % UTC.
In the case of “1075788 (kT*k[5mC]*kT*dT*dA*dA*dG*dG*dA*dT*dT*dG*dG*k[5mC]*kT*kA; antisense) [compound 1075788]”, the “YAP1 (% UTC)” value is reported as 15 % UTC.
With “1075820 (kT*k[5mC]*kT*dG*dA*dA*d[5mC]*dG*dG*dG*d[5mC]*dT*dG*kT*kT*kG; antisense) [compound 1075820]” the “YAP1 (% UTC)” value was 27 % UTC.
For “1075852 (kG*kA*kT*dA*dA*dG*d[5mC]*d[5mC]*dG*dA*dA*dT*dA*kT*kG*kG; antisense) [compound 1075852]”, the “YAP1 (% UTC)” value was 58 % UTC.
For “1075884 (antisense kA*kT*kT*dA*dG*dT*dA*dA*dT*dG*dA*d[5mC]*dT*kA*kA*k[5mC]) [compound 1075884]”, the “YAP1 (% UTC)” value was 116 % UTC.

Same assay, conditions: Table 27; Yap1 mRNA by 3-10-3 cEt gapmers targeting SEQ ID NO.: 1, and 2; percent of untreated control
In the case of “1075661 (antisense kG*kA*kA*dT*dA*dG*dG*dA*dT*dA*d[5mC]*dA*dA*kG*k[5mC]*kA) [compound 1075661]”, the “YAP1 (% UTC)” value is reported as 74 % UTC.
With “1075693 (k[5mC]*kA*kT*dT*dA*dA*dA*dA*dG*dT*dT*dG*dG*kG*kT*kT; antisense) [compound 1075693]” the “YAP1 (% UTC)” value was 36 % UTC.
For “1075725 (kA*kT*k[5mC]*d[5mC]*dT*dA*dT*d[5mC]*dT*dG*dT*d[5mC]*dA*kG*kT*kT; antisense) [compound 1075725]”, the “YAP1 (% UTC)” value was 18 % UTC.
In the case of “1075789 (kA*kA*kT*dT*dA*d[5mC]*dA*dA*dG*d[5mC]*dT*dA*dA*kT*kG*k[5mC]; antisense) [compound 1075789]”, the “YAP1 (% UTC)” value is reported as 79 % UTC.
For “1075821 (k[5mC]*kT*kT*dA*dA*d[5mC]*dT*dT*d[5mC]*d[5mC]*d[5mC]*dA*d[5mC]*kT*k[5mC]*kG; antisense) [compound 1075821]”, the “YAP1 (% UTC)” value was 22 % UTC.
In the case of “1075853 (kG*kA*kG*d[5mC]*dG*dA*dT*dA*dA*dG*d[5mC]*dT*dG*kT*kA*kT; antisense) [compound 1075853]”, the “YAP1 (% UTC)” value is reported as 72 % UTC.
For “1075885 (antisense k[5mC]*kA*kT*dT*dA*dG*dT*dA*dA*dT*dG*dA*d[5mC]*kT*kA*kA) [compound 1075885]”, the “YAP1 (% UTC)” value was 112 % UTC.
“1075917 (antisense kA*kG*k[5mC]*dA*dA*dA*dA*dA*dG*dT*dG*dA*dT*kA*kT*kG) [compound 1075917]” was tested, and the “YAP1 (% UTC)” value was 55 % UTC.

Same assay, conditions: Table 28; Yap1 mRNA as percent of untreated control; 3-10-3 cEt gapmers targeting SEQ ID NO.: 1, and 2
For “1075662 (antisense kA*kA*kG*dG*dG*dA*dT*dA*d[5mC]*dA*dA*dG*dT*kG*kT*kT) [compound 1075662]”, the “YAP1 (% UTC)” value was 78 % UTC.
“1075694 (kA*k[5mC]*kA*dT*dT*dA*dA*dA*dA*dG*dT*dT*dG*kG*kG*kT; antisense) [compound 1075694]” was tested, and the “YAP1 (% UTC)” value was 11 % UTC.
“1075726 (kA*kG*kT*dT*dA*dT*d[5mC]*d[5mC]*dT*dA*dT*d[5mC]*dT*kG*kT*k[5mC]; antisense) [compound 1075726]” was tested, and the “YAP1 (% UTC)” value was 14 % UTC.
With “1075758 (kG*kT*kA*dA*dT*dT*dT*dA*dA*dT*dA*dG*dA*k[5mC]*kT*kA; antisense) [compound 1075758]” the “YAP1 (% UTC)” value was 73 % UTC.
For “1075790 (kT*k[5mC]*kA*dG*dA*dA*dG*dA*dA*d[5mC]*dT*d[5mC]*d[5mC]*k[5mC]*kA*kT; antisense) [compound 1075790]”, the “YAP1 (% UTC)” value was 14 % UTC.
In the case of “1075822 (k[5mC]*kT*kT*dA*dG*dT*dA*dA*dT*dT*dG*d[5mC]*d[5mC]*k[5mC]*kA*kT; antisense) [compound 1075822]”, the “YAP1 (% UTC)” value is reported as 35 % UTC.
With “1075854 (k[5mC]*kT*kT*dA*dT*dA*dA*dT*dA*dG*dA*dG*d[5mC]*kT*kA*kA; antisense) [compound 1075854]” the “YAP1 (% UTC)” value was 52 % UTC.
For “1075886 (antisense k[5mC]*kA*kT*dA*dA*d[5mC]*dA*d[5mC]*dT*dG*dA*dA*dG*kG*kT*kG) [compound 1075886]”, the “YAP1 (% UTC)” value was 60 % UTC.
With “1075918 (antisense k[5mC]*kT*kT*dA*dA*dA*d[5mC]*dT*dA*dA*d[5mC]*dT*dG*kT*kT*kG) [compound 1075918]” the “YAP1 (% UTC)” value was 82 % UTC.

Same assay, conditions: Table 29; Yap1 mRNA as percent of untreated control; 3-10-3 cEt gapmers targeting SEQ ID NO.: 1, and 2
In the case of “1075663 (antisense k[5mC]*kT*kA*dA*dA*dT*dA*dG*dG*dT*dG*dG*dT*kT*kA*kT) [compound 1075663]”, the “YAP1 (% UTC)” value is reported as 80 % UTC.
In the case of “1075695 (kG*kA*kA*dT*dA*dA*d[5mC]*dA*d[5mC]*d[5mC]*dA*d[5mC]*dA*kT*kT*kA; antisense) [compound 1075695]”, the “YAP1 (% UTC)” value is reported as 30 % UTC.
In the case of “1075727 (kT*kT*kA*dT*d[5mC]*dG*dG*dA*dG*dG*d[5mC]*dT*dT*k[5mC]*kG*k[5mC]; antisense) [compound 1075727]”, the “YAP1 (% UTC)” value is reported as 31 % UTC.
In the case of “1075759 (k[5mC]*k[5mC]*kT*dT*dA*dT*dA*dA*dA*dT*dT*dA*dT*kG*kA*k[5mC]; antisense) [compound 1075759]”, the “YAP1 (% UTC)” value is reported as 44 % UTC.
In the case of “1075791 (k[5mC]*kT*kT*dT*dA*dT*d[5mC]*dA*dG*d[5mC]*d[5mC]*dA*dT*k[5mC]*kA*k[5mC]; antisense) [compound 1075791]”, the “YAP1 (% UTC)” value is reported as 10 % UTC.
“1075823 (kT*kA*kT*dT*dA*dG*dA*dG*dG*dT*dT*d[5mC]*d[5mC]*kA*kG*kG; antisense) [compound 1075823]” was tested, and the “YAP1 (% UTC)” value was 30 % UTC.
For “1075887 (antisense kT*kA*kT*dT*dA*d[5mC]*dT*dT*dG*dA*dT*dT*dG*kA*k[5mC]*kA) [compound 1075887]”, the “YAP1 (% UTC)” value was 10 % UTC.
With “1075919 (antisense kT*k[5mC]*kT*dT*dA*dA*dA*d[5mC]*dT*dA*dA*d[5mC]*dT*kG*kT*kT) [compound 1075919]” the “YAP1 (% UTC)” value was 78 % UTC.

Same assay, conditions: Table 34; Yap1 mRNA as percent of untreated control; 3-10-3 cEt gapmers targeting SEQ ID NO: 1 and 2; single dose
In the case of “1075668 (antisense kA*kA*kT*dT*dA*dT*dT*dG*dG*dT*dG*dA*d[5mC]*kA*k[5mC]*kT) [compound 1075668]”, the “YAP1 (% UTC)” value is reported as 80 % UTC.
In the case of “1075700 (kG*k[5mC]*k[5mC]*dA*dA*dA*dT*dA*dA*dG*dA*dG*dG*kT*kA*kG; antisense) [compound 1075700]”, the “YAP1 (% UTC)” value is reported as 22 % UTC.
In the case of “1075732 (kA*kA*kT*dA*dA*d[5mC]*d[5mC]*dT*d[5mC]*dG*dA*dG*dT*kG*k[5mC]*kT; antisense) [compound 1075732]”, the “YAP1 (% UTC)” value is reported as 36 % UTC.
With “1075764 (k[5mC]*kT*kT*d[5mC]*dA*dA*dG*dG*dA*dA*dG*dG*dT*kG*k[5mC]*kT; antisense) [compound 1075764]” the “YAP1 (% UTC)” value was 103 % UTC.
For “1075796 (kA*kG*kT*dA*dA*dT*dT*dA*dT*dA*dT*dA*d[5mC]*k[5mC]*k[5mC]*kA; antisense) [compound 1075796]”, the “YAP1 (% UTC)” value was 64 % UTC.
With “1075828 (kT*kT*kA*dG*dA*dA*dT*dA*dG*dT*dT*d[5mC]*dT*kA*k[5mC]*k[5mC]; antisense) [compound 1075828]” the “YAP1 (% UTC)” value was 59 % UTC.
In the case of “1075860 (antisense kA*kA*k[5mC]*dT*dA*dT*dA*dA*dG*d[5mC]*dT*dA*dT*kG*kT*kG) [compound 1075860]”, the “YAP1 (% UTC)” value is reported as 73 % UTC.
With “1075892 (antisense k[5mC]*kA*k[5mC]*d[5mC]*dA*dA*dT*dA*d[5mC]*d[5mC]*dA*dA*dA*kG*kT*k[5mC]) [compound 1075892]” the “YAP1 (% UTC)” value was 54 % UTC.
For “1075924 (antisense kA*kT*kT*dT*dA*dA*dT*dA*d[5mC]*dT*d[5mC]*dT*d[5mC]*kT*kG*kG) [compound 1075924]”, the “YAP1 (% UTC)” value was 21 % UTC.

Same assay, conditions: Table 35; Yap1 mRNA as percent of untreated control; 3-10-3 cEt gapmers targeting SEQ ID NO: 1 and 2; single dose
With “1075637 (antisense k[5mC]*k[5mC]*kA*d[5mC]*dA*dA*d[5mC]*d[5mC]*dT*dG*dT*d[5mC]*dA*kA*kT*kA) [compound 1075637]” the “YAP1 (% UTC)” value was 100 % UTC.
“1075669 (antisense kA*kA*kA*dT*dT*dA*dT*dT*dG*dG*dT*dG*dA*k[5mC]*kA*k[5mC]) [compound 1075669]” was tested, and the “YAP1 (% UTC)” value was 70 % UTC.
With “1075733 (k[5mC]*kA*kA*dT*dA*dA*d[5mC]*d[5mC]*dT*d[5mC]*dG*dA*dG*kT*kG*k[5mC]; antisense) [compound 1075733]” the “YAP1 (% UTC)” value was 28 % UTC.
For “1075765 (k[5mC]*kT*kT*dA*dA*dG*dG*d[5mC]*dA*dG*d[5mC]*dT*d[5mC]*kT*kA*kT; antisense) [compound 1075765]”, the “YAP1 (% UTC)” value was 58 % UTC.
For “1075829 (kA*k[5mC]*kT*d[5mC]*dA*dA*dT*dA*dG*dA*dT*d[5mC]*dA*kT*kT*kG; antisense) [compound 1075829]”, the “YAP1 (% UTC)” value was 41 % UTC.
For “1075861 (antisense kT*kA*kA*d[5mC]*dT*dA*dT*dA*dA*dG*d[5mC]*dT*dA*kT*kG*kT) [compound 1075861]”, the “YAP1 (% UTC)” value was 78 % UTC.
